# Assay results from patent publication EP2119770B1, “Production of alpha-oxyfunctionalized carbonyl compounds” (priority 2008, dated 2009).
# Tests used:
# Format in all cases: biochemical
# Gox2684 = target: T1, Gox2684 (Gluconobacter oxydans, UniProt Q5HXK5); test: Enzyme activity assay (rate of NAD(P)H decrease at 340 nm), Gox2684; conditions: for activities: Gox2684, substrates with highest activities; for Specific Activities: Tab. 8, GOX2684, cofactor NADPH, 10 mM substrate, pH 7.0, 30 °C
# T1 sequence (Q5HXK5 1-357): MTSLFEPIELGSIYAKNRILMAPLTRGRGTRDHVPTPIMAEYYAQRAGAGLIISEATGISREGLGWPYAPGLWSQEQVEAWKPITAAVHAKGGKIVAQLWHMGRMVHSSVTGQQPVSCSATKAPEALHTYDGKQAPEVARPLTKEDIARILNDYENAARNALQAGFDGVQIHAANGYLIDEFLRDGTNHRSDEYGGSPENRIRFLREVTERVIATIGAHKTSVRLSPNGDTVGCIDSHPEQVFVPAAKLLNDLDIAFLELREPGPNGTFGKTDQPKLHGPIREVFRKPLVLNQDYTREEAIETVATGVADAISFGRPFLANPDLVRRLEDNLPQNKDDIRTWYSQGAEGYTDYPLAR
# How it was run: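 Purified enzymes assayed at 30 °C in 40 mM potassium phosphate pH 7.0 with 10 mM substrate and NAD(P)H (0.025 mM, or 0.05 mM in the standard mixture), started by adding enzyme or substrate. Activity followed as the rate of NAD(P)H decrease at 340 nm; one unit = 1 µmol pyridine nucleotide converted per min; protein measured by Bradford.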
# Gox0644 [1] = target: T2, Gox0644 (Gluconobacter oxydans, UniProt Q5FT75); test: Regioselectivity of bioconversion, product determined by NMR, Gox0644; conditions: bioconversion with Gox1122 cofactor regeneration, NMR analysis
# Description: Cofactor regeneration: A prerequisite for the production of α-hydroxycarbonyl compounds is the regeneration of the expensive coenzymes and the stability of the protein catalysts. By coupling two coenzyme-dependent enzyme reactions, NADPH can be continuously regenerated. […] For this purpose, we used a combined enzymatic reaction between the NADPH-dependent oxidoreductases that form α-hydroxycarbonyl compounds and the aldehyde dehydrogenase GOX1122 (see Schweiger, P. et al., J. Mol. Microbiol. Biotechnol. 13:147-155 (2007)) that produces the reduced cofactor in the course of acetaldehyde oxidation. […] The biotransformation was performed in a batch process (total volume 2.5 ml 40 mM potassium phosphate buffer pH 7). 30 µg of purified Gox1122 and of NADPH-dependent oxidoreductases and 50 µM NADPH were added. The substrate concentration in the beginning was 20 mM 2,3-pentanedione and 20 mM acetaldehyde. Fresh substrates were added every 60 min (20 mM each).
# NMR: The 2.5 ml bioconversion was extracted with two times equal volume of d-chloroform. ^1H and ^13C NMR spectra were recorded on a DPX 300 Spectrometer (300 MHz) and referenced to the CDCl3 internal standard. Chemical samples analyzed with Bruker NMR Suite 2.5 software constructed final product structures.
# 2.7 Regioselectivity of GOX0644 and GOX1615: Tab. […] Tab. 10: Summary of Regioselectivity
# 5 ml bioconversions for determining regioselectivity were set up with 2 mg of proteins Gox0644 and Gox1122, 40 mM potassium phosphate buffer, pH 7.0, 50 µM NADPH. Substrates (20 mM 2,3 pentanedione and acetaldehyde) were added every 30 min. The reaction was followed for 3 h to produce quantities between 40-60 mg of product (hydroxy-pentanone).
# Gox0644 [2] = target: T2, Gox0644; test: Enzyme activity assay (rate of NAD(P)H decrease at 340 nm), Gox0644; conditions: 10 mM substrate; for Specific Activity: Tab. 4, Gox0644, cofactor NADPH, pH 7.0, 30 °C; for Activity: Table 3, Gox0644, K-phosphate buffer pH 7.0, 0.05 mM NAD(P)H, 30 °C
# Method: (§1) Reactions were induced by addition of enzyme or substrate. One unit of enzyme activity was defined as the amount of enzyme catalyzing the conversion of 1 µmol of pyridine nucleotide per min at 30 °C.
# as §1
# For each enzyme (Gox0313, Gox0502, Gox0644, Gox0646, Gox1615, Gox2107, and Gox2684 respectively), fresh enzyme preparations were used to validate the substrate spectrum and the kinetic activity. […] Reactions were induced by addition of enzyme or substrate. One unit of enzyme activity was defined as the amount of enzyme catalyzing the conversion of 1 µmol of pyridine nucleotide per min at 30 °C. […] Table 3: Summary of enzymatic activities with α-diketones, α-ketoaldehydes and /or α-ketoesters
Structure (SMILES),activities (Gox2684),Specific Activities (Gox2684),Product (regioselective reduction) (Gox0644 [1]),Specific Activity (Gox0644 [2]),Activity (Gox0644 [2]),"Product (regioselective reduction) (Gox0644 [1]; listed as 2,3 pentanedione)"
"CCCC(=O)C(C)=O [2,3-hexanedione]",2.3 U/mg protein,2.3 U/mg,2-hydroxy-hexane-3-one,50.1 U/mg,50.1 U/mg,–
"CCC(=O)C(C)=O [2,3-pentanedione]",–,0.6 U/mg,2-hydroxy-pentane-3-one,89.3 U/mg,89.3 U/mg,2-hydroxy-pentan-3-one
"CCC(=O)C(=O)CC [3,4-hexanedione]",–,0.6 U/mg,–,7.3 U/mg,7.3 U/mg,–
CC(=O)C=O [methylglyoxal],–,1.4 U/mg,–,3.4 U/mg,3.4 U/mg,–
O=CC(=O)c1ccccc1 [phenylglyoxal],2.1 U/mg protein,2.1 U/mg,2-hydroxy-2-phenylacetaldehyde,66.0 U/mg,66.0 U/mg,–
